Assay results: ChEMBL document CHEMBL5625206, “Design, synthesis, and evaluation of novel pleuromutilin aryl acrylate derivatives as promising broad-spectrum antibiotics especially for combatting multi-drug resistant gram-negative bacteria” (Eur J Med Chem, 2023)
≈ marks a conversion by molar mass, not a printed value. Calls of active or inactive are those of the source. The rule behind the calls is not given here.

Experiments:
[1] = Toxicity in fasted female Sprague-Dawley rat assessed as body weight at 224 mg/kg, IG measured after 14 days (reference value: 214.3 +/- 9.8 g); format: organism-based; details: in vivo, po, 336 h, time 14 day
[2] = Toxicity in fasted female Sprague-Dawley rat assessed as relative spleen weight ratio at 500 mg/kg, IG measured for 14 days (reference value: 0.223 +/- 0.019); format: organism-based; details: in vivo, po, 336 h, time 14 day
[3] = test system: Staphylococcus aureus; assay: Induction of cell damage in methicillin-resistant Staphylococcus aureus ATCC 33591 assessed as decrease in intracellular ATP concentration at 2 times MIC incubated for 30 mins by fluorescence based analysis relative to control; format: functional; parameters: scale not given: the % may be the effect or the level left; details: 0.5 h
[4] = Toxicity in fasted female Sprague-Dawley rat assessed as relative heart weight ratio at 500 mg/kg, IG measured for 14 days (reference value: 0.429 +/- 0.016); format: organism-based; details: in vivo, po, 336 h, time 14 day
[5] = Toxicity in fasted female Sprague-Dawley rat assessed as body weight at 148 mg/kg, IG measured after 7 days (reference value: 188.2 +/- 9.2 g); format: organism-based; details: in vivo, po, 168 h, time 7 day
[6] = test system: Staphylococcus aureus; assay: Antibacterial activity against methicillin-resistant Staphylococcus aureus ATCC 33591 infected in neutropenic Kunming mouse model assessed as restoration of infection- induced change in cell morphology in lung at 20 mg/kg, ip measured after 7 days; format: functional, organism-based; details: time 7.0 day
[7] = Toxicity in fasted male Sprague-Dawley rat assessed as relative spleen weight ratio at 500 mg/kg, IG measured for 14 days (reference value: 0.246 +/- 0.037); format: organism-based; details: in vivo, po, 336 h, time 14 day
[8] = test system: Staphylococcus aureus; assay: Induction of cell damage in methicillin-resistant Staphylococcus aureus ATCC 33591 assessed as intracellular pH at 2 times MIC incubated for 30 mins by fluorescence based analysis (reference value: 6.34 +/- 0.10); format: functional; details: 0.5 h
[9] = Toxicity in fasted male Sprague-Dawley rat assessed as relative kidney weight ratio at 100 mg/kg, IG measured for 14 days (reference value: 0.820 +/- 0.072); format: organism-based; details: in vivo, po, 336 h, time 14 day
[10] = test system: Escherichia coli; assay: Induction of extracellular electrical conductivity in Escherichia coli ATCC 25922 at 2 times MIC incubated for 8 hrs relative to control; format: functional
[11] = test system: Mesomycoplasma hyopneumoniae; assay: Anti-mycoplasma activity against Mycoplasma hyopneumoniae J-NCYC10110 assessed as bacterial growth inhibition incubated for 7 days; format: functional; details: J-NCYC10110, 168 h, time 7 day
[12] = Toxicity in fasted female Sprague-Dawley rat assessed as relative spleen weight ratio at 224 mg/kg, IG measured for 14 days (reference value: 0.223 +/- 0.019); format: organism-based; details: in vivo, po, 336 h, time 14 day
[13] = Toxicity in fasted male Sprague-Dawley rat assessed as body weight at 224 mg/kg, IG measured after 14 days (reference value: 311.2 +/- 13.6 g); format: organism-based; details: in vivo, po, 336 h, time 14 day
[14] = test system: Staphylococcus aureus; assay: Induction of cell damage in methicillin-resistant Staphylococcus aureus ATCC 33591 assessed as fold increase in extracellular ATP concentration at MIC incubated for 30 mins by fluorescence based analysis relative to control; format: functional; details: 0.5 h
[15] = Toxicity in fasted female Sprague-Dawley rat assessed as relative lung weight ratio at 331 mg/kg, IG measured for 14 days (reference value: 0.534 +/- 0025); format: organism-based; details: in vivo, po, 336 h, time 14 day
[16] = Toxicity in fasted male Sprague-Dawley rat assessed as relative liver weight ratio at 331 mg/kg, IG measured for 14 days (reference value: 3.616 +/- 0.286); format: organism-based; details: in vivo, po, 336 h, time 14 day
[17] = Toxicity in fasted female Sprague-Dawley rat assessed as body weight at 331 mg/kg, IG measured after 14 days (reference value: 214.3 +/- 9.8 g); format: organism-based; details: in vivo, po, 336 h, time 14 day
[18] = Toxicity in fasted male Sprague-Dawley rat assessed as relative lung weight ratio at 148 mg/kg, IG measured for 14 days (reference value: 0.437 +/- 0.064); format: organism-based; details: in vivo, po, 336 h, time 14 day
[19] = Toxicity in fasted female Sprague-Dawley rat assessed as relative liver weight ratio at 500 mg/kg, IG measured for 14 days (reference value: 3.199 +/- 0.062); format: organism-based; details: in vivo, po, 336 h, time 14 day
[20] = test system: Escherichia coli; assay: Induction of cell damage in Escherichia coli ATCC 25922 assessed as fold increase in extracellular ATP concentration at 2 times MIC incubated for 30 mins by fluorescence based analysis relative to control; format: functional; details: 0.5 h
[21] = Toxicity in fasted male Sprague-Dawley rat assessed as animal growth rate at 224 mg/kg, IG measured for 14 days (reference value: 46.53 +/- 3.19 g); format: organism-based; details: in vivo, po, 336 h, time 14 day
[22] = Toxicity in fasted female Sprague-Dawley rat assessed as body weight at 100 mg/kg, IG measured after 7 days (reference value: 188.2 +/- 9.2 g); format: organism-based; details: in vivo, po, 168 h, time 7 day
[23] = Toxicity in fasted female Sprague-Dawley rat assessed as relative kidney weight ratio at 224 mg/kg, IG measured for 14 days (reference value: 0.802 +/- 0.031); format: organism-based; details: in vivo, po, 336 h, time 14 day
[24] = Cytotoxicity against human A549 cells incubated for 24 hrs by CCK8 assay; format: toxicity, cell-based
[25] = Toxicity in fasted male Sprague-Dawley rat assessed as body weight at 331 mg/kg, IG measured after 14 days (reference value: 311.2 +/- 13.6 g); format: organism-based; details: in vivo, po, 336 h, time 14 day
[26] = test system: Staphylococcus aureus; assay: Inhibition of biofilm formation of methicillin-resistant Staphylococcus aureus ATCC 33591 at MIC incubated for 24 hrs by crystal violet staining based analysis relative to control; format: functional
[27] = Toxicity in fasted male Sprague-Dawley rat assessed as relative liver weight ratio at 148 mg/kg, IG measured for 14 days (reference value: 3.616 +/- 0.286); format: organism-based; details: in vivo, po, 336 h, time 14 day
[28] = Toxicity in fasted female Sprague-Dawley rat assessed as relative spleen weight ratio at 331 mg/kg, IG measured for 14 days (reference value: 0.223 +/- 0.019); format: organism-based; details: in vivo, po, 336 h, time 14 day
[29] = test system: Escherichia coli; assay: Antibacterial activity against Escherichia coli ATCC 25922 assessed as bacterial growth inhibition incubated for 24 hrs by CLSI based broth microdilution method; format: functional
[30] = Toxicity in fasted male Sprague-Dawley rat assessed as relative kidney weight ratio at 148 mg/kg, IG measured for 14 days (reference value: 0.820 +/- 0.072); format: organism-based; details: in vivo, po, 336 h, time 14 day
[31] = Toxicity in fasted female Sprague-Dawley rat assessed as animal growth rate at 100 mg/kg, IG measured for 14 days (reference value: 29.85 +/- 4.97 g); format: organism-based; details: in vivo, po, 336 h, time 14 day
[32] = Toxicity in fasted male Sprague-Dawley rat assessed as body weight at 100 mg/kg, IG measured on same day (reference value: 212.7 +/- 13.2 g); format: organism-based; details: in vivo, po
[33] = Toxicity in fasted female Sprague-Dawley rat assessed as animal growth rate at 224 mg/kg, IG measured for 14 days (reference value: 29.85 +/- 4.97 g); format: organism-based; details: in vivo, po, 336 h, time 14 day
[34] = Toxicity in fasted male Sprague-Dawley rat assessed as relative testis weight ratio at 331 mg/kg, IG measured for 14 days (reference value: 0.993 +/- 0.052); format: organism-based; details: in vivo, po, 336 h, time 14 day
[35] = test system: Staphylococcus aureus; assay: Induction of cell damage in methicillin-resistant Staphylococcus aureus ATCC 33591 assessed as decrease in intracellular ATP concentration at MIC incubated for 30 mins by fluorescence based analysis relative to control; format: functional; parameters: scale not given: the % may be the effect or the level left; details: 0.5 h
[36] = test system: Staphylococcus aureus; assay: Antibacterial activity against methicillin-resistant Staphylococcus aureus ATCC 33591 assessed as bacterial growth inhibition incubated for 24 hrs by CLSI based broth microdilution method; format: functional

`C=C[C@]1(C)C[C@@H](OC(=O)COC(=O)/C=C/c2ccc(N(C)C)cc2)[C@]2(C)[C@H](C)CC[C@]3(CCC(=O)[C@H]32)[C@@H](C)[C@@H]1O` showed an Activity [1] of 217.4 g, a Ratio [2] of 0.23 and an Activity [3] of 86.52%. For the same compound, the Ratio [4] was 0.449, the Activity [5] was 181.4 g and the Activity [6] was “Active”. It also gave a Ratio [7] of 0.209, a pH [8] of 2.75 and a Ratio [9] of 0.822. It also gave an Activity [10] of 20.78%, an MIC [11] of 0.008 µg/mL (≈ 0.0145 µM) and a Ratio [12] of 0.249. For the same compound, the Activity [13] was 304.9 g, the “fold change (FC)” value [14] was 4.01 and the Ratio [15] was 0.528. For the same compound, the Ratio [16] was 3.528, the Activity [17] was 218.7 g and the Ratio [18] was 0.415. The Ratio [19] was 3.203, the “fold change (FC)” value [20] was 5.35 and the Activity [21] was 45.2%. For the same compound, the Activity [22] was 188.2 g, the Ratio [23] was 0.839 and the CC50 at 24 h [24] was > 200 µM. The Activity [25] was 304.9 g, the “inhibition (INH)” value [26] was 56.51% and the Ratio [27] was 3.59. For the same compound, the Ratio [28] was 0.247, the MIC [29] was 16 µg/mL (≈ 29 µM) and the Ratio [30] was 0.799. The Activity [31] was 31.22%, the Activity [32] was 215.3 g and the Activity [33] was 28.96%. It also gave a Ratio [34] of 1, an Activity [35] of 57.98% and an MIC [36] of 2 µg/mL (≈ 3.63 µM).
